Calls of active or inactive are those of the source. No cut-off for these calls is given here.
How the values were obtained:
OVCAR-4 = test: Antiproliferative activity against human OVCAR4 cells after 72 hrs by MTT assay; assay type: functional, cell-based; settings: OVCAR-4, 72 h
HCT-15 = test: Antiproliferative activity against human HCT15 cells after 72 hrs by MTT assay; assay type: functional, cell-based; settings: HCT-15, 72 h
NCI-H322M = test: Antiproliferative activity against human NCI-H322M cells after 72 hrs by MTT assay; assay type: functional, cell-based
PC-3 [1] = test: Induction of apoptosis in human PC3 cells assessed as viable cells at 150 uM after 24 hrs by Annexin V-PE/7-AAD staining-based flow cytometric analysis (reference value: 70%); assay type: functional; settings: PC-3, 24 h, read-out: Activity
PC-3 [2] = test: Cell cycle arrest in human PC3 cells assessed as accumulation at S phase at 10 uM after 72 hrs by RNase/propidium iodide staining-based flow cytometric analysis (reference value: 17 +/- 1%); assay type: functional
PC-3 [3] = test: Cell cycle arrest in human PC3 cells assessed as accumulation at G0/G1 phase at 10 uM after 72 hrs by RNase/propidium iodide staining-based flow cytometric analysis (reference value: 61 +/- 3%); assay type: functional
HCT-116 = test: Antiproliferative activity against human HCT116 cells after 72 hrs by MTT assay; assay type: functional, cell-based; settings: HCT-116, 72 h
PC-3 [4] = test: Induction of apoptosis in human PC3 cells assessed as early apoptotic cells at 150 uM after 24 hrs by Annexin V-PE/7-AAD staining-based flow cytometric analysis (reference value: 2%); assay type: functional
PC-3 [5] = test: Induction of mitochondrial membrane potential loss in human PC3 cells assessed as fluorescence intensity at 50 uM after 24 hrs by TMRE dye-based flow cytometric analysis (reference value: 10101 +/- 853); assay type: functional
PC-3 [6] = test: Antiproliferative activity in human PC3 cells at 2 to 10 uM measured during 120 hrs each 15 mins by RTCA DP based cellular impedance analysis; assay type: functional, cell-based
PC-3 [7] = test: Induction of apoptosis in human PC3 cells assessed as late apoptotic cells at 150 uM after 24 hrs by Annexin V-PE/7-AAD staining-based flow cytometric analysis (reference value: 8%); assay type: functional
PC-3 [8] = test: Induction of apoptosis in human PC3 cells assessed as necrotic cells at 50 uM after 24 hrs by Annexin V-PE/7-AAD staining-based flow cytometric analysis (reference value: 14%); assay type: functional
A498 = test: Antiproliferative activity against human A498 cells after 72 hrs by MTT assay; assay type: functional, cell-based; settings: A498, 72 h
PC-3 [9] = test: Cell cycle arrest in human PC3 cells assessed as accumulation at S phase at 70 uM after 72 hrs by RNase/propidium iodide staining-based flow cytometric analysis (reference value: 17 +/- 1%); assay type: functional
PC-3 [10] = test: Induction of mitochondrial membrane potential loss in human PC3 cells assessed as fluorescence intensity at 150 uM after 24 hrs by TMRE dye-based flow cytometric analysis (reference value: 10101 +/- 853); assay type: functional
PC-3 [11] = test: Antiproliferative activity in human PC3 cells up to 50 uM measured during 120 hrs each 15 mins by RTCA DP based cellular impedance analysis; assay type: functional
[12] = Antiproliferative activity against HSF cells after 72 hrs by MTT assay; assay type: cell-based; settings: Homo sapiens
HEK293 = test: Antiproliferative activity against human HEK293 cells after 72 hrs by MTT assay; assay type: cell-based; settings: HEK293, 72 h
PC-3 [13] = test: Cell cycle arrest in human PC3 cells assessed as accumulation at G2/M phase at 10 uM after 72 hrs by RNase/propidium iodide staining-based flow cytometric analysis (reference value: 20 +/- 3%); assay type: functional
PC-3 [14] = test: Induction of apoptosis in human PC3 cells assessed as intracellular ROS levels by measuring fluoresence intensity at 150 uM after 24 hrs by DCFH-DA staining-based flow cytometric analysis (reference value: 3176 +/- 398); assay type: functional
PC-3 [15] = test: Induction of apoptosis in human PC3 cells assessed as necrotic cells at 150 uM after 24 hrs by Annexin V-PE/7-AAD staining-based flow cytometric analysis (reference value: 14%); assay type: functional
PC-3 [16] = test: Induction of apoptosis in human PC3 cells assessed as intracellular ROS levels by measuring fluoresence intensity at 50 uM after 24 hrs by DCFH-DA staining-based flow cytometric analysis (reference value: 3176 +/- 398); assay type: functional
SNB-19 = test: Antiproliferative activity against human SNB19 cells after 72 hrs by MTT assay; assay type: functional, cell-based; settings: SNB-19, 72 h
PC-3 [17] = test: Cell cycle arrest in human PC3 cells assessed as accumulation at G0/G1 phase at 70 uM after 72 hrs by RNase/propidium iodide staining-based flow cytometric analysis (reference value: 61 +/- 3%); assay type: functional
PC-3 [18] = test: Antimigratory activity in human PC3 cells up to 50 uM measured during 120 hrs each 15 mins by RTCA DP based cellular impedance analysis; assay type: functional
MDA-MB-231 = test: Antiproliferative activity against human MDA-MB-231 cells after 72 hrs by MTT assay; assay type: functional, cell-based; settings: MDA-MB-231, 72 h
PC-3 [19] = test: Cell cycle arrest in human PC3 cells assessed as accumulation at G2/M phase at 70 uM after 72 hrs by RNase/propidium iodide staining-based flow cytometric analysis (reference value: 20 +/- 3%); assay type: functional
MCF7 = test: Antiproliferative activity against human MCF7 cells after 72 hrs by MTT assay; assay type: functional, cell-based; settings: MCF7, 72 h
PC-3 [20] = test: Antiproliferative activity against human PC3 cells after 72 hrs by MTT assay; assay type: functional, cell-based; settings: PC-3, 72 h
M14 = test: Antiproliferative activity against human M14 cells after 72 hrs by MTT assay; assay type: functional, cell-based; settings: M14, 72 h
[21] = Antioxidant activity assessed as ferric ion reducing activity at 20 to 320 umol after 20 mins by FRAP assay; assay type: functional
PC-3 [22] = test: Induction of apoptosis in human PC3 cells assessed as early apoptotic cells at 50 uM after 24 hrs by Annexin V-PE/7-AAD staining-based flow cytometric analysis (reference value: 2%); assay type: functional
PC-3 [23] = test: Induction of apoptosis in human PC3 cells assessed as viable cells at 50 uM after 24 hrs by Annexin V-PE/7-AAD staining-based flow cytometric analysis (reference value: 70%); assay type: functional; settings: PC-3, 24 h, read-out: Activity
PC-3 [24] = test: Induction of apoptosis in human PC3 cells assessed as late apoptotic cells at 50 uM after 24 hrs by Annexin V-PE/7-AAD staining-based flow cytometric analysis (reference value: 8%); assay type: functional

In the case of `COc1cc(/C=C/C(C)=O)ccc1O` [DEHYDROZINGERONE], the IC50 (OVCAR-4) is reported as 139 µM, the IC50 (HCT-15) is reported as 65 µM and the IC50 (NCI-H322M) is reported as 96 µM. It also gave a viability at 150 µM (PC-3 [1]) of 64%, an Activity (PC-3 [2]) of 18% and an Activity (PC-3 [3]) of 60%. For the same molecule, the IC50 (HCT-116) was 70 µM, the Activity (PC-3 [4]) was 3% and the Flu intensity (PC-3 [5]) was 7701. The Activity (PC-3 [6]) was “inactive”, the Activity (PC-3 [7]) was 16% and the Activity (PC-3 [8]) was 13%. It also gave an IC50 (A498) of 125 µM, an Activity (PC-3 [9]) of 17% and a Flu intensity (PC-3 [10]) of 7859. The “inhibition (INH)” value (PC-3 [11]) was 47%, the IC50 [12] was 176 µM and the IC50 (HEK293) was 64 µM. The Activity (PC-3 [13]) was 21%, the Flu intensity (PC-3 [14]) was 7502 and the Activity (PC-3 [15]) was 16%. It also gave a Flu intensity (PC-3 [16]) of 2024, an IC50 (SNB-19) of 138 µM and an Activity (PC-3 [17]) of 49%. For the same molecule, the “inhibition (INH)” value (PC-3 [18]) was 78%, the IC50 (MDA-MB-231) was 86 µM and the Activity (PC-3 [19]) was 31%. It also gave an IC50 (MCF7) of 31 µM, an IC50 (PC-3 [20]) of 68 µM and an IC50 (M14) of 550 µM. For the same molecule, the Activity [21] was “Active”, the Activity (PC-3 [22]) was 3% and the viability at 50 µM (PC-3 [23]) was 70%. The Activity (PC-3 [24]) was 13%.

Reference: ChEMBL document CHEMBL4261654, “Synthesis and in vitro antitumor activity of novel alkenyl derivatives of pyridoxine, bioisosteric analogs of feruloyl methane” (Bioorg Med Chem, 2018)
